{"source": "paper PMC8434068", "about": "“An Evaluation of Understudied Phytocannabinoids and Their Effects in Two Neuronal Models” (Molecules, 2021)", "target": "T1, CB1 receptor (Rattus norvegicus, UniProt P20272)", "T1 construct": "gene Cnr1", "T1 sequence (P20272 whole entry)": "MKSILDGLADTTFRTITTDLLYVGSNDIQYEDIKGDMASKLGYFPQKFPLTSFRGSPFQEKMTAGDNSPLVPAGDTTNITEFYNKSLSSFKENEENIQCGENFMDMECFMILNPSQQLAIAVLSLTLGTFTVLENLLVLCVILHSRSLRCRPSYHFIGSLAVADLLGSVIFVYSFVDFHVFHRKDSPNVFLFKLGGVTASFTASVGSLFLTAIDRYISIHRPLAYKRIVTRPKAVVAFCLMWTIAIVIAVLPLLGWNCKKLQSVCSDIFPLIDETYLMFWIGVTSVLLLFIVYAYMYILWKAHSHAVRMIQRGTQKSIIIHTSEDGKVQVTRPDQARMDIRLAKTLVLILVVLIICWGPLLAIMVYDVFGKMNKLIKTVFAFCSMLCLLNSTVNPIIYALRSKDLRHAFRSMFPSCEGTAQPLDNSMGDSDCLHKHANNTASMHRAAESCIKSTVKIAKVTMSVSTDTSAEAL", "assay": "Pink Flamindo cAMP assay in CB1-transfected HEK293 cells, antagonism of 2-AG; also reverses bath-applied 2-AG in autaptic neurons", "type": "cell-based"}
{"smiles": "CCCc1cc(O)c2c(c1)OC(C)(C)[C@@H]1CCC(C)=C[C@@H]21", "note": "[THCV, Δ^9-tetrahydrocannabivarin]", "values": [{"measurement": "IC50", "result": 7.3, "unit": "nM"}]}
